US12630498B2 (Genzyme Corporation, priority 2019, dated 2026)
pEC50: −log10 of the molar value.

Key:
[1] = target: T1, human Cystic Fibrosis Transmembrane Conductance Regulator (CFTR) harboring the ΔF508 mutation (Homo sapiens, UniProt P13569, DEL508-508); assay: H441 cell ΔF508-CFTR-HRP cell surface assay (Emax and EC50); assay type: cell-based; details: for Emax: NCI-H441, NA = Not active
T1 construct: expressed in transfected cells; host or cells: H441 carcinoma line (G418-selected)
Method in brief: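 H441 and 41o- bronchial epithelial cells expressing ΔF508-CFTR with an extracellular-loop-4 HRP tag were treated with a 15-point compound series (24.5–0.001 μM) for two nights, H441 at 27° C, 41o- at 37° C with 0.0005 mg/ml doxycycline. Surface HRP luminescence read; % of maximum VX809 signal and EC50 derived.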

[2] = target: T2, CFTR-mediated transepithelial chloride transport in primary human bronchial epithelial cells from a ΔF508 homozygous CF donor (Homo sapiens, UniProt P13569, DEL508-508); assay: TECC24 recording of CFTR-mediated transepithelial chloride transport in CF-HBE cells (AUC fold over DMSO); assay type: cell-based; details: test agent 10 μM, 48 hours incubation, AUC of forskolin-stimulated IEQ relative to DMSO
T2 construct: Primary human bronchial epithelial cells from a ΔF508 homozygous CF donor; host or cells: primary CF-HBE cells, ΔF508 homozygous donor
T2 sequence (P13569 with tags, fused parts or gaps DEL508-508): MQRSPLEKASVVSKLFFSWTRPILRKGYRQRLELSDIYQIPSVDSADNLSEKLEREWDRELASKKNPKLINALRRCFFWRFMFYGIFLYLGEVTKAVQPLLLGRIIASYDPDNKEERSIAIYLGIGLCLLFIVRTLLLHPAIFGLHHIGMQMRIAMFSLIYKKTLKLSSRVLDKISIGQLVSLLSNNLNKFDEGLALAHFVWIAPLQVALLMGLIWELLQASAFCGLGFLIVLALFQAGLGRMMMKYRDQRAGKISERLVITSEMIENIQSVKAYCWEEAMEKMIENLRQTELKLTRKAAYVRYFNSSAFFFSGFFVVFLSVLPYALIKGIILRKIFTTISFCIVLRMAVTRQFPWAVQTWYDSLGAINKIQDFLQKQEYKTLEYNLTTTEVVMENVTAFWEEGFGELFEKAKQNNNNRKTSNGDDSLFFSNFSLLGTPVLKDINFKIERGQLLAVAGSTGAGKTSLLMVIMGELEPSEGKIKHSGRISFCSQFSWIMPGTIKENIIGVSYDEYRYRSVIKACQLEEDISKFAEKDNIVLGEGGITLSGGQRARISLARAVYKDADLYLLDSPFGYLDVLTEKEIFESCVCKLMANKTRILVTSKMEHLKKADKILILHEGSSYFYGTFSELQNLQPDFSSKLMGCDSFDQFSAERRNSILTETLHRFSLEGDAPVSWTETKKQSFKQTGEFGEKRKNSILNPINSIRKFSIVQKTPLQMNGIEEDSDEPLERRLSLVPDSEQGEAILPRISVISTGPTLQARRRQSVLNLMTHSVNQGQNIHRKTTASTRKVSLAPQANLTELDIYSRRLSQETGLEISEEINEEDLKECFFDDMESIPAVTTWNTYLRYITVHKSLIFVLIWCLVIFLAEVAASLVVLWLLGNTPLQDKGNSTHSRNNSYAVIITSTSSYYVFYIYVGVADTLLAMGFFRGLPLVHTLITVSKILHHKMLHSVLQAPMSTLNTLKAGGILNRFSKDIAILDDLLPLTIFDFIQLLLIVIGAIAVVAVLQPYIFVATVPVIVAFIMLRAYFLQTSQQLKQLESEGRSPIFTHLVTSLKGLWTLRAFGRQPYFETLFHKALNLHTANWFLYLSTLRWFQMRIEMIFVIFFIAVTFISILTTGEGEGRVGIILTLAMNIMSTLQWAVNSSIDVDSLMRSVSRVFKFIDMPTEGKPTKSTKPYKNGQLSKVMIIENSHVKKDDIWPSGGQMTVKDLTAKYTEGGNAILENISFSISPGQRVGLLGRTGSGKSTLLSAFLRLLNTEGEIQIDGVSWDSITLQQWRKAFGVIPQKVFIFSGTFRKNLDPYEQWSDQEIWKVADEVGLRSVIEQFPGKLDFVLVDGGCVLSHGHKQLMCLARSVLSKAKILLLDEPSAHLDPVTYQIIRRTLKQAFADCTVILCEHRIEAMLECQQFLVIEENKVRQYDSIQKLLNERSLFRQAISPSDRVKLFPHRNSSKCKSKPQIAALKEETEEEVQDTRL
Method in brief: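 Primary ΔF508/ΔF508 CF-HBE cells on inserts exposed to test agent in IL-13-containing medium for 48 h at 36.5 °C. Current-clamp VT/TEER recording in pH 7.4 HEPES saline with benzamil 10 μM, forskolin 10 μM, then CFTRinh-172 20 μM. AUC of equivalent Cl⁻ current between forskolin and inhibitor, expressed as ratio over vehicle.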

T1 sequence (P13569 with tags, fused parts or gaps DEL508-508): as above

Structure (SMILES) | pEC50 [1] | Emax [1] | TECC24 AUC fold over DMSO @10 μM [2]
CC(C)(C)C[C@H](NC(=O)c1ccc2cc(F)ccc2c1OCC1CCCCC1)C(=O)O [Example 205, (S)-2-(1-(cyclohexylmethoxy)-6-fluoro-2-naphthamido)-4,4-dimethylpentanoic Acid] | 5.32 | 92.2% | C (“C” refers to AUC @10 uM <4)
C#CC(C)(C)C(NC(=O)c1ccc2ccc(C)cc2c1OCc1ccc(C(F)(F)F)cc1)C(=O)O (stereo not drawn) [Example 219, 3,3-dimethyl-2-[[7-methyl-1-[[4-(trifluoromethyl)phenyl]methoxy]naphthalene-2-carbonyl]amino]pent-4-ynoic Acid] | 6.40 | 191% | A (“A” refers to AUC @10 uM >6)
CC(C)(C)[C@H](NC(=O)c1ccc2ccccc2c1OCc1nc2ccccc2s1)C(=O)O [Example 58, (S)-2-(1-(benzo[d]thiazol-2-ylmethoxy)-2-naphthamido)-3,3-dimethylbutanoic Acid] | 5.55 | 139% | C (“C” refers to AUC @10 uM <4)
C[C@@H](OCc1ccccc1)[C@H](NC(=O)c1ccc2cc(F)ccc2c1OCC1CCCCC1)C(=O)O (stereo in doubt) [Example 202] | 5.39 | 112% | C (“C” refers to AUC @10 uM <4)
CC(C)(C)[C@H](NC(=O)c1ccc2c(F)cccc2c1OCc1ccc(OC(F)(F)F)cc1)C(=O)O [Example 221, (2S)-2-[[5-fluoro-1-[[4-(trifluoromethoxy)phenyl]methoxy]naphthalene-2-carbonyl]amino]-3,3-dimethyl-butanoic Acid] | 5.92 | 125% | A (“A” refers to AUC @10 uM >6)
O=C(N[C@H](C(=O)O)C(c1ccccc1)c1ccccc1)c1ccc2ccccc2c1OCc1nc2ccccc2s1 [Example 212, (S)-2-(1-(benzo[d]thiazol-2-ylmethoxy)-2-naphthamido)-3,3-diphenylpropanoic Acid] | 5.92 | 141% | C (“C” refers to AUC @10 uM <4)
CCC(C)(C)[C@H](NC(=O)c1ccc2ccc(Cl)cc2c1OCc1ccc(OC(F)(F)F)cc1)C(=O)O [Example 277, (S)-2-(7-chloro-1-((4-(trifluoromethoxy)benzyl)oxy)-2-naphthamido)-3,3-dimethylpentanoic Acid] | 7.00 | 186% | A (“A” refers to AUC @10 uM >6)
O=C(N[C@H](C(=O)O)C1CCCC1)c1ccc2ccccc2c1OCc1ccc(SC(F)(F)F)cc1 [Example 114, (S)-2-cyclopentyl-2-(1-((4-((trifluoromethyl)thio)benzyl)oxy)-2-naphthamido)acetic Acid] | 5.59 | 86.1% | C (“C” refers to AUC @10 uM <4)
CC1(C(NC(=O)c2ccc3ccccc3c2OCc2ccc(S(F)(F)(F)(F)F)cc2)C(=O)O)CC1 (stereo not drawn) [Example 68, 2-(1-methylcyclopropyl)-2-(1-((4-(pentafluoro-l6-sulfanyl)benzyl)oxy)-2-naphthamido)acetic Acid] | 5.72 | 104% | C (“C” refers to AUC @10 uM <4)
CCCC(C)(CC)[C@H](NC(=O)c1ccc2ccc(Cl)cc2c1OCc1ccc(OC(F)(F)F)cc1)C(=O)O (stereo partly drawn) [Example 251, (2S)-2-[[7-chloro-1-[[4-(trifluoromethoxy)phenyl]methoxy]naphthalene-2-carbonyl]amino]-3-ethyl-3-methyl-hexanoic Acid] | 7.00 | 267% | A (“A” refers to AUC @10 uM >6)
CC(C)(C)[C@H](NC(=O)c1ccc2ccc(F)cc2c1OCc1ccc(C(F)(F)F)cc1)C(=O)O [Example 241, (S)-2-(7-fluoro-1-((4-(trifluoromethyl)benzyl)oxy)-2-naphthamido)-3,3-dimethylbutanoic Acid] | 7.00 | 236% | A (“A” refers to AUC @10 uM >6)
Cc1cc(F)c2ccc(C(=O)N[C@H](C(=O)O)C(C)(C)C)c(OCc3ccc(C(F)(F)F)cc3)c2c1 [Example 263, (2S)-2-[[5-fluoro-7-methyl-1-[[4-(trifluoromethyl)phenyl]methoxy]naphthalene-2-carbonyl]amino]-3,3-dimethyl-butanoic Acid] | 7.00 | 250% | A (“A” refers to AUC @10 uM >6)
CC1(C(NC(=O)c2ccc3cc(F)ccc3c2OCc2ccc(SC(F)(F)F)cc2)C(=O)O)CCCCC1 (stereo not drawn) [Example 69, 2-(6-fluoro-1-((4-((trifluoromethyl)thio)benzyl)oxy)-2-naphthamido)-2-(1-methylcyclohexyl)acetic Acid] | 6.40 | 57.7% | C (“C” refers to AUC @10 uM <4)
CC(C)(C)[C@H](NC(=O)c1ccc2ccccc2c1OC[C@H]1CC[C@@H](C(F)(F)F)CC1)C(=O)O [Example 26, (S)-3,3-dimethyl-2-(1-(((1s,4R)-4-(trifluoromethyl)cyclohexyl)methoxy)-2-naphthamido)butanoic Acid] | 5.34 | 98.8% | C (“C” refers to AUC @10 uM <4)
O=C(N[C@H](C(=O)O)C1CCCC1)c1ccc2ccccc2c1OCC1CCC(F)(F)CC1 [Example 155, (S)-2-cyclopentyl-2-(1-((4,4-difluorocyclohexyl)methoxy)-2-naphthamido)acetic Acid] | 5.39 | 60.7% | C (“C” refers to AUC @10 uM <4)
CC(C)(C)[C@H](NC(=O)c1ccc2ccccc2c1OCC1CC2CCC1C2)C(=O)O (stereo partly drawn) [Example 41, (2S)-2-(1-(bicyclo[2.2.1]heptan-2-ylmethoxy)-2-naphthamido)-3,3-dimethylbutanoic Acid] | 5.43 | 112% | C (“C” refers to AUC @10 uM <4)

Continued, values first:

pEC50 [1] | Emax [1] | TECC24 AUC fold over DMSO @10 μM [2] | Structure (SMILES)
6.15 | 138% | C (“C” refers to AUC @10 uM <4) | CC(C)(SCC1CC1(F)F)[C@H](NC(=O)c1ccc2ccccc2c1OCc1ccc(C(F)(F)F)cc1)C(=O)O (stereo partly drawn) [Example 163, (2R)-3-(((2,2-difluorocyclopropyl)methyl)thio)-3-methyl-2-(1-((4-(trifluoromethyl)benzyl)oxy)-2-naphthamido)butanoic Acid]
5.85 | 118% | C (“C” refers to AUC @10 uM <4) | COC(C)(C)[C@H](NC(=O)c1ccc2ccccc2c1OCc1ccc(C(F)(F)F)cc1)C(=O)O [Example 139, (S)-3-methoxy-3-methyl-2-(1-((4-(trifluoromethyl)benzyl)oxy)-2-naphthamido)butanoic Acid]
6.70 | 196% | C (“C” refers to AUC @10 uM <4) | O=C(N[C@H](C(=O)O)C(c1ccccc1)c1ccccc1)c1ccc2ccccc2c1OCc1ccc(C(F)(F)F)c(F)c1 [Example 130, (S)-2-(1-((3-fluoro-4-(trifluoromethyl)benzyl)oxy)-2-naphthamido)-3,3-diphenylpropanoic Acid]
5.14 | 64.4% | C (“C” refers to AUC @10 uM <4) | O=C(N[C@@H](CCc1ccccc1)C(=O)O)c1ccc2ccccc2c1OCc1ccc(C(F)(F)F)cc1 [Example 88, (S)-4-phenyl-2-(1-((4-(trifluoromethyl)benzyl)oxy)-2-naphthamido)butanoic Acid]
7.00 | 214% | B (“B” refers to AUC @10 uM between 4-6) | O=C(N[C@H](C(=O)O)C(c1ccccc1)c1ccccc1)c1ccc2ccccc2c1OCc1ccc(C(F)(F)F)cc1 [Example 126, (S)-3,3-diphenyl-2-(1-((4-(trifluoromethyl)benzyl)oxy)-2-naphthamido)propanoic Acid]
5.14 | 122% | C (“C” refers to AUC @10 uM <4) | O=C(N[C@@H](Cc1c(Cl)cccc1Cl)C(=O)O)c1ccc2ccccc2c1OCc1ccc(C(F)(F)F)cc1 [Example 152, (S)-3-(2,6-dichlorophenyl)-2-(1-((4-(trifluoromethyl)benzyl)oxy)-2-naphthamido)propanoic Acid]
6.05 | 150% | C (“C” refers to AUC @10 uM <4) | Cc1cc(C)c(C[C@H](NC(=O)c2ccc3ccccc3c2OCc2ccc(C(F)(F)F)cc2)C(=O)O)c(C)c1 [Example 178, (S)-3-mesityl-2-(1-((4-(trifluoromethyl)benzyl)oxy)-2-naphthamido)propanoic Acid]
5.24 | 83.1% | C (“C” refers to AUC @10 uM <4) | O=C(N[C@@H](Cc1ccccc1)C(=O)O)c1ccc2ccccc2c1OCc1ccc(Cl)c(Cl)c1 [Example 99, (1-((3,4-dichlorobenzyl)oxy)-2-naphthoyl)-L-phenylalanine]
5.70 | 215% | A (“A” refers to AUC @10 uM >6) | C#CC(C)(C)C(NC(=O)c1ccc2ccccc2c1OCc1ccc(C(F)(F)F)cc1)C(=O)O (stereo not drawn) [Example 228, 3,3-dimethyl-2-[[1-[[4-(trifluoromethyl)phenyl]methoxy]naphthalene-2-carbonyl]amino]pent-4-ynoic Acid]
